Measured values taken from the OPERA property sets (Mansouri et al. 2018).
Converted amounts (≈) assume the structure as drawn.

Details: not given
Compound COc1ccc2c3c1O[C@H]1[C@@H](O)C=C[C@H]4[C@@H](C2)NCC[C@@]341 has a logP of 0.69. Cn1ccc(=O)c(O)c1 gave a logP of -0.7. In the case of CC(=O)Nc1ncc2ncn(COCCO)c2n1, the logP is reported as -1.33. O=C1OC(=Nc2ccc(Cl)cc2)C2=C1CCCC2 showed a logP of 3.84. Compound C[C@H](CCC(=O)O)[C@H]1CC[C@H]2[C@@H]3[C@H](O)C[C@@H]4C[C@H](O)CC[C@]4(C)[C@H]3C[C@H](O)[C@]12C has a logP of 2.02. Work on C[N+](C)(C)CC1CCCC1.[I-] yielded a logP of -2. COc1cc2nc(N3CCN(C(=O)C4COc5ccccc5O4)CC3)nc(N)c2cc1OC (stereo not drawn) showed a logP of 3.3. Cc1ccc(O[Si]23OCCN(CCO2)CCO3)cc1 gave a logP of 0.08. In the case of Cc1cc(C)nc(NS(=O)(=O)c2ccc(N)cc2)n1, the logP is reported as 0.19. COc1ccc(S(=O)(=O)c2coc(S(N)(=O)=O)c2)cc1 gave a logP of 1.17. For CC(O)(C(=O)O)c1ccccc1 (stereo not drawn), the logP was 0.8. Compound N#CCCOc1cccc2ccccc12 has a logP of 2.8. Work on CC(CCC(=O)O)C1CCC2C3C(O)CC4CC(O)CCC4(C)C3CCC12C (stereo not drawn) yielded a logP of 3. With Clc1ccc(Cn2cncn2)cc1 the logP was 1.84. With CCCCCCCCC the logP was 5.65. Compound CC(C)C(=O)Nc1ccc([N+](=O)[O-])c(C(F)(F)F)c1 has a logP of 3.35. In the case of CC(C)Cc1ccc(C(C)(O)C(=O)O)cc1 (stereo not drawn), the logP is reported as 2.75. Work on Cc1cc(C)c(C#[N+][O-])c(C)c1 yielded a logP of 3.21. In the case of Cc1ncc([N+](=O)[O-])n1C, the logP is reported as 0.31. With c1ccc2[nH]c(-c3cscn3)nc2c1 the logP was 2.47. CCCN(CC1CC1)c1c([N+](=O)[O-])cc(C(F)(F)F)cc1[N+](=O)[O-] gave a logP of 5.58. In the case of Cc1ccc2c(ccc3ccccc32)c1, the logP is reported as 4.86. For CCOC1OC2OC3(C)CCC4C(C)C(OC5OC(C(=O)O)C(O)C(O)C5O)CC(C1C)C24OO3 (stereo not drawn), the logP was 0.61. CC1(C)C=C(C(=O)NCCCN2C(=O)c3ccccc3C2=O)C(C)(C)N1 showed a logP of 1.58. CC1CCC(=O)N1 (stereo not drawn) showed a logP of -0.1. Cc1ccc(Br)c(C)c1NC(=O)CN(CC(=O)O)CC(=O)O showed a logP of -0.28. With NS(=O)(=O)c1nn2c(=Nc3ccccc3)snc2s1 the logP was 2.57. CC(C)COC(=O)c1cc(=O)[nH]c(=O)[nH]1 gave a logP of 1.01. In the case of Clc1cccc2c1Oc1c(Cl)c(Cl)c(Cl)c(Cl)c1O2, the logP is reported as 6.5. For Nc1c(OC2C=CC(N3CCCCCC3=O)=CC2)cc(O)c2c1C(=O)c1ccccc1C2=O (stereo not drawn), the logP was 5.3. For CC(=O)OC1C=CC2C3Cc4ccc(O)c5c4C2(CCN3C)C1O5 (stereo not drawn), the logP was 1.55. With ClC=C1C2CC(C(Cl)C2(Cl)Cl)C1(CCl)CCl (stereo not drawn) the logP was 5.2. Work on O=C(O)CCCC(=O)c1ccc(-c2ccccc2)cc1 yielded a logP of 3.35. With N[C@@H](Cc1ccc(O)c(O)c1)C(=O)OC1CCCCC1 the logP was 1.79. In the case of c1ccc(N=Nc2ccccc2)cc1, the solubility is reported as 0.0351 mM (≈ 0.0064 mg/mL). Work on CC(C)(C)[N+]([O-])=Cc1ccc(F)cc1 yielded a logP of 1.42. In the case of CCCCC(NC(Cc1ccccc1)C(=O)N1CCC(OCOC)CC1)C(=O)NC(CC1CCCCC1)C(O)CC(C(=O)NCCNc1n[nH]c(N)n1)C(C)C (stereo not drawn), the logP is reported as 4.2. Work on S=C=Nc1ccc(Cl)cc1 yielded a logP of 3.91. CC=CCCCCC showed a logP of 4.51. Compound Clc1ccc2c(Cl)c(Cl)c(Cl)c(Cl)c2c1 has a logP of 7. With BrC=C(Br)Br the logP was 3.2. Compound CCCc1oc(C)cc(=O)c1O has a logP of 1.4. For C[Si](C)(C)O[Si](C)(C)O[Si](C)(C)C, the logP was 6.6. Compound Cc1nc(N)nc(C(Cl)(Cl)Cl)n1 has a logP of 1.77. In the case of CN(C)C(N)=S, the logP is reported as -0.43. For CCCOC(=O)CCC(=O)OCCC, the logP was 2.16. With COc1cc(OC)ncn1 the logP was 0.96. For O=C(CCl)N1CCOCC1, the logP was -0.6. With CNC(=O)CCc1ccccc1 the logP was 1.17. For N#CCCN(N)c1nc2ccccc2o1, the logP was 0.9. Clc1cc2c(Cl)cccc2c(Cl)c1Cl showed a logP of 5.77. Work on O=c1ccn(C2OC(CO)C(O)C2O)c(=O)n1Cc1ccccc1 (stereo not drawn) yielded a logP of 0.33. Cc1ccc(S(=O)(=O)O)cc1 gave a solubility of 3600 mM (≈ 620 mg/mL). For CC1(C2=CCCCC2)C(=O)NC(=O)NC1=O, the logP was 1.6. For Cn1cnc(I)c1[N+](=O)[O-], the logP was 1.29. CC(=O)Nc1ccc2nc(S(N)(=O)=O)sc2c1 gave a logP of 0.86. With CNC[C@H](O)c1ccc(O)c(O)c1 the logP was -1.2. Work on CCCCOCCOCCCC yielded a logP of 2.48. O=C(O)CNC(=O)c1cccc(I)c1 gave a logP of 1.88. Compound CCCCCCCCCCCCN1CC(C(=O)O)CC1=O (stereo not drawn) has a logP of 2.6. Nc1cccc(Cl)c1 gave a solubility of 42.3 mM (≈ 5.4 mg/mL). Work on Brc1cccc(Oc2ccc(Br)c(Br)c2Br)c1 yielded a logP of 6.05. For CCCC(CCC)=NNC(N)=Nc1ccccc1, the logP was 2.33. Compound COC(=O)C(c1ccccc1)C(C)C (stereo not drawn) has a logP of 3.33. Work on NC(=O)CC[C@H](N)C(=O)O yielded a logP of -3.64. With CC(O)CNc1ccccc1C(N)=O (stereo not drawn) the logP was 0.62. With COc1ccc2sc(C(=O)Nc3nnn[nH]3)c(OC(C)C)c2c1 the logP was 1.78. CC(C)c1ccc(C=[N+]([O-])c2ccccc2)cc1 showed a logP of 3.37. Work on CCON=C(CC)C1=C(O)CC(c2c(C)cc(C)cc2C)CC1=O (stereo not drawn) yielded a logP of 4.46. With CCC(=O)OC the logP was 0.84. With C=CCOc1ccccc1OCC(CNC(C)C)OC(=O)C=CC (stereo not drawn) the logP was 3.65.

Same assay, conditions: 20 °C
C=CC(=O)NCO gave a solubility of 6460 mM (≈ 653 mg/mL). Compound Clc1cccc2c1Oc1c(Cl)c(Cl)c(Cl)c(Cl)c1O2 has a solubility of 3.37e-07 mM (≈ 1.2e-07 mg/mL). C=Cc1ccccn1 showed a solubility of 262 mM (≈ 27.5 mg/mL). In the case of COP(=S)(OC)Oc1nc(Cl)c(Cl)cc1Cl, the solubility is reported as 0.0148 mM (≈ 0.00476 mg/mL). Compound Clc1ccc(-c2ccc(Cl)cc2)cc1 has a solubility of 0.000278 mM (≈ 6.2e-05 mg/mL). In the case of Nc1c(Cl)cc([N+](=O)[O-])cc1Cl, the solubility is reported as 0.0338 mM (≈ 0.007 mg/mL).

Same assay, conditions: 23.0 °C
Compound CC1=CC[C@@H]2[C@H]3[C@@H](C(C)C)CC[C@]2(C)[C@@H]13 has a log10 OH rate constant (cm³/molecule/s) of -10.

Same assay, conditions: 24.0 °C
With C[Si](C)(C)C the log10 OH rate constant (cm³/molecule/s) was -12.

Same assay, conditions: 25 °C
Compound Clc1cc2ccccc2cc1Cl has a solubility of 0.00044 mM (≈ 8.67e-05 mg/mL). c1ccc(OCC2CO2)cc1 (stereo not drawn) showed a solubility of 16 mM (≈ 2.4 mg/mL). For CC(N)=S, the solubility was 2170 mM (≈ 163 mg/mL). OCC(Br)CBr (stereo not drawn) gave a solubility of 239 mM (≈ 52 mg/mL). Cc1ccc2c(ccc3ccccc32)c1 gave a solubility of 0.00146 mM (≈ 0.00028 mg/mL). With CN/C(=N\C#N)NCCSCc1nc[nH]c1C the solubility was 41 mM (≈ 10.3 mg/mL). With CC1(C)[C@H]2CC[C@](C)(C2)[C@H]1O the solubility was 5.37 mM (≈ 0.828 mg/mL). For CCCCCCCCCCCCC, the solubility was 2.55e-05 mM (≈ 4.7e-06 mg/mL). O=C(O)Cc1ccc(O)cc1 showed a solubility of 399 mM (≈ 60.7 mg/mL). With C=C(C)C(=O)OCC the solubility was 47.3 mM (≈ 5.4 mg/mL). In the case of Cc1ccc2c(c1N)C(=O)c1ccccc1C2=O, the solubility is reported as 0.0014 mM (≈ 0.000332 mg/mL). In the case of FC(F)(F)C(F)(Cl)Cl, the solubility is reported as 0.801 mM (≈ 0.137 mg/mL). C[Si](C)(C)O[Si](C)(C)O[Si](C)(C)C gave a solubility of 0.000144 mM (≈ 3.4e-05 mg/mL). Work on CCc1ccccc1O yielded a solubility of 43.7 mM (≈ 5.34 mg/mL). CN showed a solubility of 34800 mM (≈ 1080 mg/mL). For ClC1=C(Cl)[C@]2(Cl)[C@@H]3[C@@H]4C[C@@H]([C@H]5O[C@@H]45)[C@@H]3[C@@]1(Cl)C2(Cl)Cl (single isomer, unassigned), the solubility was 0.00058 mM (≈ 0.000221 mg/mL). For CC(C)(C)c1ccc(O)c(O)c1, the solubility was 12 mM (≈ 2 mg/mL). In the case of O=C(O)CCC1CCCC1, the solubility is reported as 17 mM (≈ 2.42 mg/mL). For ClC/C=C/CCl, the solubility was 5.27 mM (≈ 0.659 mg/mL). With CCC(=O)OC the solubility was 708 mM (≈ 62.4 mg/mL).

Same assay, conditions: 25.0 °C
For CCOC(=O)NC, the log10 OH rate constant (cm³/molecule/s) was -11.1. In the case of OCC(F)(F)C(F)(F)F, the log10 OH rate constant (cm³/molecule/s) is reported as -13. O=C(O)C(F)(F)F gave a log10 OH rate constant (cm³/molecule/s) of -12.9. OCC(F)(F)C(F)(F)C(F)(F)F showed a log10 OH rate constant (cm³/molecule/s) of -13. With C=CC(C)(C)O the log10 OH rate constant (cm³/molecule/s) was -10.2. Work on CC(C)[N+](=O)[O-] yielded a log10 OH rate constant (cm³/molecule/s) of -12.6. CCCCCBr showed a log10 OH rate constant (cm³/molecule/s) of -11.4. c1cc2ccc3cccc4ccc(c1)c2c34 showed a log10 OH rate constant (cm³/molecule/s) of -10.3. In the case of COCCOC, the log10 OH rate constant (cm³/molecule/s) is reported as -10.6. Work on C=Cc1ccccn1 yielded a log10 OH rate constant (cm³/molecule/s) of -10.2. Compound Clc1ccc(-c2ccc(Cl)cc2)cc1 has a log10 OH rate constant (cm³/molecule/s) of -11.7.

Same assay, conditions: 27 °C
In the case of NCCc1c[nH]c2ccc(O)cc12, the solubility is reported as 114 mM (≈ 20 mg/mL).

Same assay, conditions: 27.0 °C
Cc1cccc(O)c1O showed a log10 OH rate constant (cm³/molecule/s) of -9.69.

Same assay, conditions: 30 °C
Fc1ccccc1 gave a solubility of 16 mM (≈ 1.54 mg/mL).
